According to article PMC7587356, “High-Throughput Screening for Inhibitors of the SARS-CoV-2 Protease Using a FRET-Biosensor” (Molecules, 2020):
Structures can show the parent of a compound that is named as a salt. Where two headings read alike, the source gives them in different places.

Target: SARS-CoV-2 3CLpro (Severe acute respiratory syndrome coronavirus 2, UniProt P0DTD1)
Test: biochemical
Type: biochemical
Parameters: Replicate_1 / Replicate_2 / mean / mean (LOPAC_screen_w_protease): unit not given here
Conditions: for inhibition at 5 µM: 4 h; for mean (LOPAC screen with protease) / Replicate_1 (LOPAC screen with protease) / Replicate_2 (LOPAC screen with protease): primary screen at 5 µM
[1] = sheet LOPAC_screen_w_protease, primary screen of LOPAC1280 at 5 µM with protease, mean of the two replicates, read-out: mean
[2] = sheet LOPAC_screen_w_protease, primary screen of LOPAC1280 at 5 µM with protease, replicate 1, read-out: Replicate_1
[3] = sheet LOPAC_screen_w_protease, primary screen of LOPAC1280 at 5 µM with protease, replicate 2, read-out: Replicate_2
[4] = sheet LOPAC_screen_w_protease, LOPAC1280 at 5 µM, mean of two replicates, read-out: mean
[5] = sheet LOPAC_screen_w_protease, LOPAC1280 at 5 µM, replicate 1, read-out: Replicate_1
[6] = sheet LOPAC_screen_w_protease, LOPAC1280 at 5 µM, replicate 2, read-out: Replicate_2
[7] = sheet LOPAC_screen_w_protease, primary screen with protease, compound at 5 µM, mean of two replicates
[8] = sheet LOPAC_screen_w_protease, primary screen with protease, compound at 5 µM, replicate 1
[9] = sheet LOPAC_screen_w_protease, primary screen with protease, compound at 5 µM, replicate 2
[10] = LOPAC1280 primary screen with protease, 5 µM compound, replicate 1, read-out: Replicate_1 (LOPAC_screen_w_protease)
[11] = LOPAC1280 primary screen with protease, 5 µM compound, replicate 2, read-out: Replicate_2 (LOPAC_screen_w_protease)
[12] = LOPAC1280 primary screen with protease, 5 µM compound, mean of the two replicates
[13] = LOPAC1280 primary screen with protease, 5 µM compound, mean of two replicates
[14] = sheet LOPAC_screen_w_protease, mean of two replicates
[15] = sheet LOPAC_screen_w_protease, replicate 1
[16] = sheet LOPAC_screen_w_protease, replicate 2
[17] = sheet LOPAC_screen_w_protease, primary screen of LOPAC1280 at 5 µM with protease, mean of the two replicates
[18] = sheet LOPAC_screen_w_protease, primary screen of LOPAC1280 at 5 µM with protease, replicate 1
[19] = sheet LOPAC_screen_w_protease, primary screen of LOPAC1280 at 5 µM with protease, replicate 2
[20] = LOPAC1280 primary screen with protease, 5 µM compound, replicate 1
[21] = LOPAC1280 primary screen with protease, 5 µM compound, replicate 2
[22] = read-out: Replicate_1 (LOPAC screen with protease)
[23] = read-out: Replicate_2 (LOPAC screen with protease)
[24] = read-out: mean (LOPAC screen with protease)
[25] = sheet LOPAC_screen_w_protease, primary screen with protease, mean of two replicates
[26] = sheet LOPAC_screen_w_protease, primary screen with protease, replicate 1
[27] = sheet LOPAC_screen_w_protease, primary screen with protease, replicate 2
[28] = read-out: Replicate_1 (LOPAC_screen_w_protease)
[29] = read-out: Replicate_2 (LOPAC_screen_w_protease)

O=C(CCNNC(=O)c1ccncc1)NCc1ccccc1 [Nialamide]
inhibition at 5 µM [1]: 3.19%
inhibition at 5 µM [2]: 4.27%
inhibition at 5 µM [3]: 2.12%

CNCCC(Oc1ccccc1OC)c1ccccc1 (stereo not shown) [Nisoxetine hydrochloride]
inhibition at 5 µM (sheet LOPAC_screen_w_protease, LOPAC1280 primary screen with protease, 5 µM compound, mean of the two replicates, read-out: mean): 4.4%
inhibition at 5 µM (sheet LOPAC_screen_w_protease, LOPAC1280 primary screen with protease, 5 µM compound, replicate 1, read-out: Replicate_1): 3.53%
inhibition at 5 µM (sheet LOPAC_screen_w_protease, LOPAC1280 primary screen with protease, 5 µM compound, replicate 2, read-out: Replicate_2): 5.27%

NS(=O)(=O)c1cc2c(cc1Cl)N=CNS2(=O)=O [Chlorothiazide]
inhibition at 5 µM [4]: 0.892%
inhibition at 5 µM [5]: 1.61%
inhibition at 5 µM [6]: 0.17%

Cn1ccc2cc3c(cc21)CCN3C(=O)Nc1cccnc1 [SB 206553 hydrochloride]
mean [7]: 2.821
Replicate_1 [8]: 3.909
Replicate_2 [9]: 1.733

CN1C[C@H](C(=O)N[C@]2(C)O[C@@]3(O)[C@@H]4CCCN4C(=O)[C@H](Cc4ccccc4)N3C2=O)C[C@@H]2c3cccc4[nH]cc(c34)C[C@H]21 [Dihydroergotamine methanesulfonate]
inhibition at 5 µM [10]: 2.09%
inhibition at 5 µM [11]: 1.52%
mean (LOPAC_screen_w_protease) [12]: 1.805

NNC(=O)c1ccc(O)cc1 [4-Hydroxybenzhydrazide]
mean [7]: 2.583
Replicate_1 [8]: 1.695
Replicate_2 [9]: 3.47

Picrotoxin
mean (sheet LOPAC_screen_w_protease, LOPAC1280 primary screen with protease, 5 µM compound, mean of the two replicates): 4.15
Replicate_1 (sheet LOPAC_screen_w_protease, LOPAC1280 primary screen with protease, 5 µM compound, replicate 1): 3.321
Replicate_2 (sheet LOPAC_screen_w_protease, LOPAC1280 primary screen with protease, 5 µM compound, replicate 2): 4.978

O=C(CCCN1CCC(O)(c2cccc(C(F)(F)F)c2)CC1)c1ccc(F)cc1 [Trifluperidol hydrochloride]
inhibition at 5 µM [10]: -0.00744%
inhibition at 5 µM [11]: 3.06%
mean (LOPAC_screen_w_protease) [13]: 1.525

Cn1c(=O)c2c(ncn2C)n(C)c1=O [Caffeine]
inhibition at 5 µM (sheet LOPAC_screen_w_protease, primary screen with protease, mean of two replicates, read-out: mean): 2.35%
inhibition at 5 µM (sheet LOPAC_screen_w_protease, primary screen with protease, replicate 1, read-out: Replicate_1): 1.98%
inhibition at 5 µM (sheet LOPAC_screen_w_protease, primary screen with protease, replicate 2, read-out: Replicate_2): 2.71%

Br.CN=c1nc(-c2ccccc2)n(-c2ccccc2)s1 [SCH-202676 hydrobromide]
mean (LOPAC screen with protease) [14]: 100.647
Replicate_1 (LOPAC screen with protease) [15]: 100.647
Replicate_2 (LOPAC screen with protease) [16]: 100.647

CCCCCCCC/C=C\CCCCCCCC(=O)NCCO [N-Oleoylethanolamine]
mean [17]: 3.1732
Replicate_1 [18]: 4.947
Replicate_2 [19]: 1.4

Cl.Cl.NCCC(=O)NCCc1c[nH]cn1 [Carcinine dihydrochloride]
mean (LOPAC_screen_w_protease) [13]: 1.47
Replicate_1 (LOPAC_screen_w_protease) [20]: -0.04434
Replicate_2 (LOPAC_screen_w_protease) [21]: 2.985

Nc1ccn([C@H]2CC[C@@H](CO)O2)c(=O)n1 [2',3'-dideoxycytidine]
inhibition at 5 µM [4]: 1.06%
inhibition at 5 µM [5]: 1.73%
inhibition at 5 µM [6]: 0.388%

CCCn1c(=O)c2[nH]c(-c3ccc(OCC(=O)Nc4ccc(C#N)cc4)cc3)nc2n(CCC)c1=O [MRS 1754]
inhibition at 5 µM [1]: 3.78%
inhibition at 5 µM [2]: 1.48%
inhibition at 5 µM [3]: 6.08%

O=c1c2ccccc2nc2n1CCc1c-2[nH]c2ccccc12 [Rutaecarpine]
inhibition at 5 µM (sheet LOPAC_screen_w_protease, LOPAC1280 primary screen at 5 µM, with protease, mean of the two replicates, read-out: mean): 0.598%
inhibition at 5 µM (sheet LOPAC_screen_w_protease, LOPAC1280 primary screen at 5 µM, with protease, replicate 1, read-out: Replicate_1): 1.54%
inhibition at 5 µM (sheet LOPAC_screen_w_protease, LOPAC1280 primary screen at 5 µM, with protease, replicate 2, read-out: Replicate_2): -0.348%

O=c1c2ccccc2[se]n1-c1ccccc1 [Ebselen, reference compound]
inhibition at 5 µM [22]: 105%
inhibition at 5 µM [23]: 102%
inhibition at 5 µM [24]: 103%

CC(N)(Cc1ccc(O)c(O)c1)C(=O)O (racemic)
mean (LOPAC screen with protease) [14]: 6.44
Replicate_1 (LOPAC screen with protease) [15]: 5.736
Replicate_2 (LOPAC screen with protease) [16]: 7.145

N[C@H](C(=O)O)c1cc(O)cc(O)c1 [(S)-3,5-Dihydroxyphenylglycine]
mean [17]: 3.456
Replicate_1 [18]: 2.928
Replicate_2 [19]: 3.983

O=S(=O)(c1cccc2cnccc12)N1CCNCC1 [HA-100]
mean (sheet LOPAC_screen_w_protease, LOPAC1280 primary screen at 5 µM, with protease, mean of the two replicates): 0.7375
Replicate_1 (sheet LOPAC_screen_w_protease, LOPAC1280 primary screen at 5 µM, with protease, replicate 1): 1.4906
Replicate_2 (sheet LOPAC_screen_w_protease, LOPAC1280 primary screen at 5 µM, with protease, replicate 2): -0.01568

C[N+](C)(C)CCCCCC[N+](C)(C)C.[Cl-].[Cl-] [Hexamethonium dichloride]
mean (LOPAC_screen_w_protease) [12]: 1.868
Replicate_1 (LOPAC_screen_w_protease) [20]: 3.928
Replicate_2 (LOPAC_screen_w_protease) [21]: -0.1911

CCCC(=O)NCCc1c2n(c3ccc(OC)cc13)CCCc1ccccc1-2 [K 185]
mean [25]: 2.196
Replicate_1 [26]: 2.886
Replicate_2 [27]: 1.507

COC1(C2=NCCN2)COc2ccccc2O1.Cl (stereo not shown) [RX 821002 hydrochloride]
mean (sheet LOPAC_screen_w_protease, primary screen with protease, 5 µM, mean of two replicates): 0.0583
Replicate_1 (sheet LOPAC_screen_w_protease, primary screen with protease, 5 µM, replicate 1): -1.138
Replicate_2 (sheet LOPAC_screen_w_protease, primary screen with protease, 5 µM, replicate 2): 1.255

17alpha-hydroxyprogesterone
mean [25]: 2.147
Replicate_1 [26]: 1.557

CCCNCC(O)COc1ccccc1C(=O)CCc1ccccc1 (stereo not shown) [Propafenone hydrochloride]
inhibition at 5 µM [1]: 3.27%
inhibition at 5 µM [2]: 3.05%
inhibition at 5 µM [3]: 3.48%

O=C1CCC(N2C(=O)c3ccccc3C2=O)C(=O)N1 (racemic) [(±)-Thalidomide]
mean (sheet LOPAC_screen_w_protease, LOPAC1280 at 5 µM, mean of two replicates): 1.21
Replicate_1 (sheet LOPAC_screen_w_protease, LOPAC1280 at 5 µM, replicate 1): 0.4169
Replicate_2 (sheet LOPAC_screen_w_protease, LOPAC1280 at 5 µM, replicate 2): 2.003

CN1CCC(=C2c3ccccc3CC(=O)c3sccc32)CC1 [Ketotifen fumarate]
inhibition at 5 µM [1]: 3.16%
inhibition at 5 µM [2]: 4.97%
inhibition at 5 µM [3]: 1.34%

CCCCCN(CCCCC)C(=O)C(CCC(=O)O)NC(=O)c1ccc(Cl)c(Cl)c1 (stereo not shown) [Lorglumide sodium]
inhibition at 5 µM [1]: 3.65%
inhibition at 5 µM [2]: 2.9%
inhibition at 5 µM [3]: 4.4%

Cc1cnc(C(=O)NCCc2ccc(S(=O)(=O)NC(=O)NC3CCCCC3)cc2)cn1 [Glipizide]
inhibition at 5 µM [22]: 10.3%
inhibition at 5 µM [23]: 3.17%
inhibition at 5 µM [24]: 6.73%

C[N+](C)(C)CCOC(=O)CBr.[Br-] [Bromoacetylcholine bromide]
mean [25]: 2.401
Replicate_1 [26]: 0.6425
Replicate_2 [27]: 4.16

C[N+](C)(C)CC(=O)O [Betaine hydrochloride]
inhibition at 5 µM [4]: 1.07%
inhibition at 5 µM [5]: 0.144%
inhibition at 5 µM [6]: 1.99%

Br.CN1CCc2c(cc(O)c(O)c2Cl)C(c2cccc(Cl)c2)C1 (stereo not shown) [SKF 83565 hydrobromide]
mean (LOPAC screen with protease) [14]: 22.1474
Replicate_1 (LOPAC screen with protease) [15]: 23.5852
Replicate_2 (LOPAC screen with protease) [16]: 20.7095

CNCCCN1c2ccccc2CCc2ccccc21 [Desipramine hydrochloride]
mean (LOPAC_screen_w_protease): 1.646
inhibition at 5 µM [28]: 1.71%
inhibition at 5 µM [29]: 1.58%

CC(C)Cc1ccc([C@H](C)C(=O)O)cc1 [S(+)-Ibuprofen]
mean (LOPAC_screen_w_protease) [13]: 1.7003
Replicate_1 (LOPAC_screen_w_protease) [20]: 1.122
Replicate_2 (LOPAC_screen_w_protease) [21]: 2.279

Br.COc1ccccc1N1CCN(CCCCN2C(=O)c3ccccc3C2=O)CC1 [NAN-190 hydrobromide]
mean (LOPAC_screen_w_protease) [12]: 1.999
Replicate_1 (LOPAC_screen_w_protease) [20]: 4.031
Replicate_2 (LOPAC_screen_w_protease) [21]: -0.03323

OC(CCN1CCCCC1)(c1ccccc1)C1CCCCC1 (stereo not shown) [Trihexyphenidyl hydrochloride]
inhibition at 5 µM [28]: 1.61%
inhibition at 5 µM [29]: 1.86%

O=C1NC(c2cccc([N+](=O)[O-])c2)=CCN1c1ccccc1O [Icilin]
inhibition at 5 µM [1]: 3.88%
inhibition at 5 µM [2]: 4.52%
inhibition at 5 µM [3]: 3.25%

CCn1nc(C(=O)O)c(=O)c2cc3c(cc21)OCO3 [Cinoxacin]
inhibition at 5 µM [10]: -0.0118%
inhibition at 5 µM [11]: 4.09%
mean (LOPAC_screen_w_protease) [12]: 2.037
